Test results as given in patent US20200345776A1, “CELL” (AUTOLUS LIMITED, priority 2017, published 2020).

What was measured:
[1] = molecular target: Adenosine A2AR receptor (Homo sapiens, UniProt P29274); conditions: cited from earlier work
[2] = system: SKOV3 cells; conditions: positive control of cell killing/inhibition, 10 ug/ml; cited from earlier work
[3] = system: cancer cells; conditions: cited from earlier work
[4] = system: NCI-H460 non-small-cell lung cancer; conditions: cited from earlier work
[5] = system: MOLT-4 leukaemia; conditions: cited from earlier work
[6] = system: SKOV3 cells; test: Co-culture of violacein-producing SupT1 cells with SKOV3 cells, live cell imaging; format: cell-based, human; conditions: FIG. 12, co-culture
Description: The following day the indicated supT1 cells were added to the SKOV3 cells at density of 20,000 cells per well in a total volume of 200 ul cell culture medium. Cells were continuously monitored in a Incycute live cell imager and the number of viable SKOV3 cells enumerated every hour by counting the presence of red fluorescent nuclei.

[7] = system: KM12 colon-cancer cell lines; conditions: cited from earlier work

Adenosine A2AR receptor, sequence (P29274 whole entry): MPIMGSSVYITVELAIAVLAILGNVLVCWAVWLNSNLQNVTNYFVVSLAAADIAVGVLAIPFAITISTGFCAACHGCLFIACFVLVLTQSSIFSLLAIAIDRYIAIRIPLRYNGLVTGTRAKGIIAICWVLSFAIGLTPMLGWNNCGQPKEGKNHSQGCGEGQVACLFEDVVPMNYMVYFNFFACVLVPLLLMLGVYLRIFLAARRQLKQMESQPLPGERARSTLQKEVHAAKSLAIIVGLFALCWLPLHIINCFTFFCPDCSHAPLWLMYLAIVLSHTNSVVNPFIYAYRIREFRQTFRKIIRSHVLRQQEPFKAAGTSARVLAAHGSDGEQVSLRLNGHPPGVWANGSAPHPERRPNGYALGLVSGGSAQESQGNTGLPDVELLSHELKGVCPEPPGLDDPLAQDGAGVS

Cn1c(=O)c2c(ncn2C)n(C)c1=O [Caffeine]
Action on Adenosine A2AR receptor expressed on T cells [1]: known antagonist

COc1cc([C@@H]2c3cc4c(cc3[C@@H](O[C@@H]3O[C@@H]5CO[C@@H](C)O[C@H]5[C@H](O)[C@H]3O)[C@H]3COC(=O)[C@H]23)OCO4)cc(OC)c1O [Etoposide]
Apoptosis of SKOV3 cells [2]: induces the apoptosis

CC(C)=CCC/C(C)=C/CO [Geraniol]
Effect against cancer cells in vitro [3]: anti-proliferative/pro-apoptotic effect

O=C1NC(c2c[nH]c3ccc(O)cc23)=C/C1=C1\C(=O)Nc2ccccc21 [Violacein]
Activity against NCI-H460 non-small-cell lung cancer [4]: has activity
Activity against MOLT-4 leukaemia [5]: has activity
Toxicity of violacein produced by SupT1 cells to SKOV3 tumour cells [6]: toxic
Activity against KM12 colon-cancer cell lines [7]: has activity
